This is an account of results in ChEMBL document CHEMBL1131783, “Prodrugs of CL316243: a selective beta3-adrenergic receptor agonist for treating obesity and diabetes” (Bioorg Med Chem Lett, 1999).

For one test, the species on record is Mus musculus. Kind of test: The compound was evaluated for the % glucose lowering along with drug intake over the test period of 5-7 days in mice.
The target of test [1] is Beta-3 adrenergic receptor (Rattus norvegicus) (UniProt P26255). Kind of test: Effective dose required for beta-3-adrenergic activity against free fatty acid (FFA) in rat plasma. In kind it is functional.
Test [2] shares this target. Kind of test: Beta-3-adrenergic activity measured by percent response against free fatty acid (FFA) in rat plasma at a dosage of 0.1 mg/kg. Format: functional, organism-based. Set-up: dose 0.1 mg/kg.

Chain of Beta-3 adrenergic receptor (Rattus norvegicus) (P26255 whole entry): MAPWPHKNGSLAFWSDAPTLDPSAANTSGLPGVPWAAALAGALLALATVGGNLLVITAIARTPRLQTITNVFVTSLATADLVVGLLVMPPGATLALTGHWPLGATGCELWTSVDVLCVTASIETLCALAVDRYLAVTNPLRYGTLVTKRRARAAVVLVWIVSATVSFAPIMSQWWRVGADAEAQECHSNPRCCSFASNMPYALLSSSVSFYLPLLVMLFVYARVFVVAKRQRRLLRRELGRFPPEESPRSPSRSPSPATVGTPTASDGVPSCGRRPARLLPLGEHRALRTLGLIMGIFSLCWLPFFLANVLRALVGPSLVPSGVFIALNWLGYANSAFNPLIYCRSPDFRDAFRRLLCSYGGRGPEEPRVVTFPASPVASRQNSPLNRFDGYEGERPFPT

As to `C[C@H](Cc1ccc2c(c1)OC(C(=O)OCCc1cccs1)(C(=O)OCCc1cccs1)O2)NC[C@H](O)c1cccc(Cl)c1`, the ED50 in the test filed under Mus musculus stood at 0.208 mg/kg; in test [1], 0.076 mg/kg. In test [2], this compound yielded a Response of 77%. In turn, `CCC(CC)COC(=O)C1(C(=O)O)Oc2ccc(C[C@@H](C)NC[C@H](O)c3cccc(Cl)c3)cc2O1` (stereo not given in full) displayed a Response in test [2] of 56%.

Consider `CCCCCCCCOC(=O)C1(C(=O)O)Oc2ccc(C[C@@H](C)NC[C@H](O)c3cccc(Cl)c3)cc2O1` (stereo not given in full), for which the Response in test [2] amounted to 45%.

As to `C[C@H](Cc1ccc2c(c1)OC(C(=O)OCCC1CC1)(C(=O)OCCC1CC1)O2)NC[C@H](O)c1cccc(Cl)c1`, the Response in test [2] amounted to 77%. As to `C[C@H](Cc1ccc2c(c1)OC(C(=O)O)(C(=O)OCCOC(C)(C)C)O2)NC[C@H](O)c1cccc(Cl)c1` (stereo not given in full), the Response in test [2] stood at 20%.

`CCCOC(=O)COC(=O)C1(C(=O)OCC(=O)OCCC)Oc2ccc(C[C@@H](C)NC[C@H](O)c3cccc(Cl)c3)cc2O1` had a Response in test [2] of 30%. In test [2], `C[C@H](Cc1ccc2c(c1)OC(C(=O)OC/C=C/c1ccccc1)(C(=O)OC/C=C/c1ccccc1)O2)NC[C@H](O)c1cccc(Cl)c1` displayed a Response of 58%. In test [2], `C[C@H](Cc1ccc2c(c1)OC(C(=O)OCC1CCOC1)(C(=O)OCC1CCOC1)O2)NC[C@H](O)c1cccc(Cl)c1` (stereo not given in full) yielded a Response of 68%. The same measure, in the same setting: with `C[C@H](Cc1ccc2c(c1)OC(C(=O)O)(C(=O)OCCC(C)(C)C)O2)NC[C@H](O)c1cccc(Cl)c1` (stereo not given in full) the figure was 61%; with `CCC(CC)OC(=O)C1(C(=O)O)Oc2ccc(C[C@@H](C)NC[C@H](O)c3cccc(Cl)c3)cc2O1` (stereo not given in full), 52%.

With `COCCOC(=O)C1(C(=O)OCCOC)Oc2ccc(C[C@@H](C)NC[C@H](O)c3cccc(Cl)c3)cc2O1`, the Response in test [2] amounted to 65%. Still for that read-out and setting: the value for `C[C@H](Cc1ccc2c(c1)OC(C(=O)OCc1ccccc1)(C(=O)OCc1ccccc1)O2)NC[C@H](O)c1cccc(Cl)c1` was 21%; that for `CCCCCCOC(=O)C1(C(=O)O)Oc2ccc(C[C@@H](C)NC[C@H](O)c3cccc(Cl)c3)cc2O1` (stereo not given in full) was 66%.

For the compound `CC(=O)OCOC(=O)C1(C(=O)OCOC(C)=O)Oc2ccc(C[C@@H](C)NC[C@H](O)c3cccc(Cl)c3)cc2O1`, the Response in test [2] is 39%. `CCOC(=O)C(C)OC(=O)C1(C(=O)OC(C)C(=O)OCC)Oc2ccc(C[C@@H](C)NC[C@H](O)c3cccc(Cl)c3)cc2O1` (stereo not given in full) yielded a Response in test [2] of 9%. In the case of `C[C@H](Cc1ccc2c(c1)OC(C(=O)OCC(C)(C)CO)(C(=O)OCC(C)(C)CO)O2)NC[C@H](O)c1cccc(Cl)c1`, the Response in test [2] is 78%. Compound `C[C@H](Cc1ccc2c(c1)OC(C(=O)OCCc1ccsc1)(C(=O)OCCc1ccsc1)O2)NC[C@H](O)c1cccc(Cl)c1` displayed a Response in test [2] of 80%. Consider `C[C@H](Cc1ccc2c(c1)OC(C(=O)OCC1CC1)(C(=O)OCC1CC1)O2)NC[C@H](O)c1cccc(Cl)c1`, for which the Response in test [2] amounted to 99%. Compound `C[C@H](Cc1ccc2c(c1)OC(C(=O)O)(C(=O)OCC[Si](C)(C)C)O2)NC[C@H](O)c1cccc(Cl)c1` (stereo not given in full) had a Response in test [2] of 30%. Regarding `C[C@H](Cc1ccc2c(c1)OC(C(=O)OCCCCCc1ccccc1)(C(=O)OCCCCCc1ccccc1)O2)NC[C@H](O)c1cccc(Cl)c1`, the Response in test [2] was 93%. Turning to `C[C@H](Cc1ccc2c(c1)OC(C(=O)OCCCCc1ccccc1)(C(=O)OCCCCc1ccccc1)O2)NC[C@H](O)c1cccc(Cl)c1`, in test [2], the Response came out at 43%. In test [2], `C[C@H](Cc1ccc2c(c1)OC(C(=O)OCC(=O)Oc1ccccc1)(C(=O)OCC(=O)Oc1ccccc1)O2)NC[C@H](O)c1cccc(Cl)c1` registered a Response of 37%. For `CCOCCOC(=O)C1(C(=O)OCCOCC)Oc2ccc(C[C@@H](C)NC[C@H](O)c3cccc(Cl)c3)cc2O1`, the Response in test [2] was 101%. Compound `CCC(=O)OC(C)OC(=O)C1(C(=O)OC(C)OC(=O)CC)Oc2ccc(C[C@@H](C)NC[C@H](O)c3cccc(Cl)c3)cc2O1` (stereo not given in full) gave a Response in test [2] of 2%. Regarding `C[C@H](Cc1ccc2c(c1)OC(C(=O)OCCc1cccc(Br)c1)(C(=O)OCCc1cccc(Br)c1)O2)NC[C@H](O)c1cccc(Cl)c1`, the Response in test [2] was found to be 71%. Compound `CCOC(=O)COC(=O)C1(C(=O)OCC(=O)OCC)Oc2ccc(C[C@@H](C)NC[C@H](O)c3cccc(Cl)c3)cc2O1` returned a Response in test [2] of 22%.

Compound `C[C@H](Cc1ccc2c(c1)OC(C(=O)O)(C(=O)OCC(C)(C)C)O2)NC[C@H](O)c1cccc(Cl)c1` (stereo not given in full) showed a Response in test [2] of 81%.

`CCCCCCOC(=O)C1(C(=O)OCCCCCC)Oc2ccc(C[C@@H](C)NC[C@H](O)c3cccc(Cl)c3)cc2O1` showed a Response in test [2] of 51%. On to `C[C@H](Cc1ccc2c(c1)OC(C(=O)O)(C(=O)OCCOCc1ccccc1)O2)NC[C@H](O)c1cccc(Cl)c1` (stereo not given in full), for which, in test [2], the Response was 109%. In test [2], `C[C@H](Cc1ccc2c(c1)OC(C(=O)O)(C(=O)OCCOc1ccccc1)O2)NC[C@H](O)c1cccc(Cl)c1` (stereo not given in full) showed a Response of 51%.

For the compound `CC(C)CCC(=O)OCOC(=O)C1(C(=O)OCOC(=O)CCC(C)C)Oc2ccc(C[C@@H](C)NC[C@H](O)c3cccc(Cl)c3)cc2O1`, the Response in test [2] came to 37%. The same measure, in the same setting: with `CC(C)OCCOC(=O)C1(C(=O)OCCOC(C)C)Oc2ccc(C[C@@H](C)NC[C@H](O)c3cccc(Cl)c3)cc2O1` the figure was 86%. Compound `C[C@H](Cc1ccc2c(c1)OC(C(=O)OCC(C)(C)Cc1ccccc1)(C(=O)OCC(C)(C)Cc1ccccc1)O2)NC[C@H](O)c1cccc(Cl)c1` registered a Response in test [2] of 25%. Regarding `CCC(CC)COC(=O)C1(C(=O)OCC(CC)CC)Oc2ccc(C[C@@H](C)NC[C@H](O)c3cccc(Cl)c3)cc2O1`, the Response in test [2] amounted to 86%. Same read-out and setting: the value for `C=CCOC(=O)C1(C(=O)OCC=C)Oc2ccc(C[C@@H](C)NC[C@H](O)c3cccc(Cl)c3)cc2O1` was 86%; that for `CC(C)OC(=O)COC(=O)C1(C(=O)OCC(=O)OC(C)C)Oc2ccc(C[C@@H](C)NC[C@H](O)c3cccc(Cl)c3)cc2O1` was 78%. In test [2], `CCCCCCC(=O)OCOC(=O)C1(C(=O)OCOC(=O)CCCCCC)Oc2ccc(C[C@@H](C)NC[C@H](O)c3cccc(Cl)c3)cc2O1` returned a Response of 23%.

`CCOC(=O)C1(C(=O)O)Oc2ccc(C[C@@H](C)NC[C@H](O)c3cccc(Cl)c3)cc2O1` (stereo not given in full) yielded a Response in test [2] of 57%. For `COCCOCCOC(=O)C1(C(=O)OCCOCCOC)Oc2ccc(C[C@@H](C)NC[C@H](O)c3cccc(Cl)c3)cc2O1`, in test [2], the Response is 71%. The compound `C[C@H](Cc1ccc2c(c1)OC(C(=O)OCCOc1ccc(Cl)cc1)(C(=O)OCCOc1ccc(Cl)cc1)O2)NC[C@H](O)c1cccc(Cl)c1` showed a Response in test [2] of 26%. `C[C@H](Cc1ccc2c(c1)OC(C(=O)OCC(=O)c1ccccc1)(C(=O)OCC(=O)c1ccccc1)O2)NC[C@H](O)c1cccc(Cl)c1` came in with a Response in test [2] of 7%.

The compound `CC(OC(=O)C(C)(C)C)OC(=O)C1(C(=O)OC(C)OC(=O)C(C)(C)C)Oc2ccc(C[C@@H](C)NC[C@H](O)c3cccc(Cl)c3)cc2O1` (stereo not given in full) yielded a Response in test [2] of 23%. Regarding `C[C@H](Cc1ccc2c(c1)OC(C(=O)OC1CCCCC1)(C(=O)OC1CCCCC1)O2)NC[C@H](O)c1cccc(Cl)c1`, in test [2], the Response came to 59%. On the same count and under the same terms, with `C[C@H](Cc1ccc2c(c1)OC(C(=O)OCCCOCc1ccccc1)(C(=O)OCCCOCc1ccccc1)O2)NC[C@H](O)c1cccc(Cl)c1` the figure was 83%.

The compound `C[C@H](Cc1ccc2c(c1)OC(C(=O)OCC1(C)CCCCC1)(C(=O)OCC1(C)CCCCC1)O2)NC[C@H](O)c1cccc(Cl)c1` showed a Response in test [2] of 84%. In test [2], `CCCCOCCOC(=O)C1(C(=O)OCCOCCCC)Oc2ccc(C[C@@H](C)NC[C@H](O)c3cccc(Cl)c3)cc2O1` showed a Response of 58%. On the same count and under the same terms, the value for `C[C@H](Cc1ccc2c(c1)OC(C(=O)OCC1CCCO1)(C(=O)OCC1CCCO1)O2)NC[C@H](O)c1cccc(Cl)c1` (stereo not given in full) was 24%; that for `CCCCOC(=O)C1(C(=O)OCCCC)Oc2ccc(C[C@@H](C)NC[C@H](O)c3cccc(Cl)c3)cc2O1` was 83%. Turning to `C[C@H](Cc1ccc2c(c1)OC(C(=O)OCCOCc1ccccc1)(C(=O)OCCOCc1ccccc1)O2)NC[C@H](O)c1cccc(Cl)c1`, the Response in test [2] is 120%. As for `COc1ccc(COC(=O)C2(C(=O)OCc3ccc(OC)cc3)Oc3ccc(C[C@@H](C)NC[C@H](O)c4cccc(Cl)c4)cc3O2)cc1`, in test [2], the Response is 8%. As for `C[C@H](Cc1ccc2c(c1)OC(C(=O)O)(C(=O)OCC1CCCCC1)O2)NC[C@H](O)c1cccc(Cl)c1` (stereo not given in full), the Response in test [2] turned out to be 47%. In test [2], `CCC(CC)OC(=O)C1(C(=O)OC(CC)CC)Oc2ccc(C[C@@H](C)NC[C@H](O)c3cccc(Cl)c3)cc2O1` yielded a Response of 63%. On to `CC(OC(=O)OC1CCCCC1)OC(=O)C1(C(=O)OC(C)OC(=O)OC2CCCCC2)Oc2ccc(C[C@@H](C)NC[C@H](O)c3cccc(Cl)c3)cc2O1` (stereo not given in full), for which the Response in test [2] worked out at 17%. As for `CC(C)COCCOC(=O)C1(C(=O)OCCOCC(C)C)Oc2ccc(C[C@@H](C)NC[C@H](O)c3cccc(Cl)c3)cc2O1`, in test [2], the Response was found to be 63%.

In the case of `C[C@H](Cc1ccc2c(c1)OC(C(=O)OCOC(=O)C1CCCCC1)(C(=O)OCOC(=O)C1CCCCC1)O2)NC[C@H](O)c1cccc(Cl)c1`, in test [2], the Response amounted to 19%. In test [2], `C[C@H](Cc1ccc2c(c1)OC(C(=O)OCC[Si](C)(C)C)(C(=O)OCC[Si](C)(C)C)O2)NC[C@H](O)c1cccc(Cl)c1` registered a Response of 60%.

In turn, `C[C@H](Cc1ccc2c(c1)OC(C(=O)OCOC(=O)C(C)(C)C)(C(=O)OCOC(=O)C(C)(C)C)O2)NC[C@H](O)c1cccc(Cl)c1` came in with a Response in test [2] of 14%. In test [2], `CC(OC(=O)C1(C(=O)OC(C)c2ccccc2)Oc2ccc(C[C@@H](C)NC[C@H](O)c3cccc(Cl)c3)cc2O1)c1ccccc1` (stereo not given in full) showed a Response of 78%. On to `C[C@H](Cc1ccc2c(c1)OC(C(=O)OCCOc1ccccc1)(C(=O)OCCOc1ccccc1)O2)NC[C@H](O)c1cccc(Cl)c1`, for which the Response in test [2] amounted to 2%.

As to `C[C@H](Cc1ccc2c(c1)OC(C(=O)OCCc1ccccc1)(C(=O)OCCc1ccccc1)O2)NC[C@H](O)c1cccc(Cl)c1`, the figures for the ED50 (in the test filed under Mus musculus; in test [1]) were 0.156 mg/kg and 0.071 mg/kg, respectively. In test [2], this compound showed a Response of 95%. As to `C[C@H](Cc1ccc2c(c1)OC(C(=O)O)(C(=O)OCC1CCC1)O2)NC[C@H](O)c1cccc(Cl)c1` (stereo not given in full), in test [2], the Response was determined as 39%.

Usually ED50 stands for the midpoint of the dose-response relation. Low values mean an effect at a small dose, high ones a need for a large dose.
